Data taken from PubChem BioAssay (NCI).
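The compound was tested at five concentrations on cells cultured in 96-well plates, with a 48-hour exposure period. TGI denotes the concentration required for complete inhibition of growth.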

Legend:
Experiment in all cases: inhibition of tumour cell growth, NCI panel, 48 h
CAKI-1 renal = system: CAKI-1 renal
SF-268 CNS = system: SF-268 CNS
ACHN renal = system: ACHN renal
UACC-62 melanoma = system: UACC-62 melanoma
OVCAR-4 ovarian = system: OVCAR-4 ovarian
HCT-15 colon = system: HCT-15 colon
MCF7 breast = system: MCF7 breast
MDA-MB-435 = system: MDA-MB-435
NCI-H522 lung = system: NCI-H522 lung
HOP-62 NSCLC = system: HOP-62 NSCLC
SK-MEL-2 melanoma = system: SK-MEL-2 melanoma
HCT-116 colon = system: HCT-116 colon
SK-MEL-28 melanoma = system: SK-MEL-28 melanoma
SN12C renal = system: SN12C renal
LOX IMVI melanoma = system: LOX IMVI melanoma
HCC-2998 colon = system: HCC-2998 colon
COLO 205 colon = system: COLO 205 colon
HS 578T breast = system: HS 578T breast
SK-MEL-5 melanoma = system: SK-MEL-5 melanoma
U251 CNS = system: U251 CNS
SF-295 CNS = system: SF-295 CNS
K-562 leukemia = system: K-562 leukemia
A498 renal = system: A498 renal
HL-60(TB) leukemia = system: HL-60(TB) leukemia
SK-OV-3 ovarian = system: SK-OV-3 ovarian
IGROV1 ovarian = system: IGROV1 ovarian
MALME-3M melanoma = system: MALME-3M melanoma
M14 melanoma = system: M14 melanoma
KM12 colon = system: KM12 colon
PC-3 prostate = system: PC-3 prostate
NCI-H23 lung = system: NCI-H23 lung
NCI/ADR-RES ovarian = system: NCI/ADR-RES ovarian
NCI-H226 lung = system: NCI-H226 lung
OVCAR-3 ovarian = system: OVCAR-3 ovarian
RPMI-8226 leukemia = system: RPMI-8226 leukemia
HOP-92 NSCLC = system: HOP-92 NSCLC
SF-539 CNS = system: SF-539 CNS
TK-10 renal = system: TK-10 renal
RXF 393 renal = system: RXF 393 renal
UO-31 renal = system: UO-31 renal
NCI-H460 lung = system: NCI-H460 lung
786-0 renal = system: 786-0 renal
CCRF-CEM leukemia = system: CCRF-CEM leukemia
EKVX NSCLC = system: EKVX NSCLC
SW-620 colon = system: SW-620 colon
A549 NSCLC = system: A549 NSCLC
SNB-19 CNS = system: SNB-19 CNS
MDA-N = system: MDA-N
MDA-MB-231 breast = system: MDA-MB-231 breast
BT-549 breast = system: BT-549 breast
HT29 colon = system: HT29 colon
OVCAR-8 ovarian = system: OVCAR-8 ovarian
UACC-257 melanoma = system: UACC-257 melanoma
DU-145 prostate = system: DU-145 prostate
MOLT-4 leukemia = system: MOLT-4 leukemia
SNB-75 CNS = system: SNB-75 CNS
OVCAR-5 ovarian = system: OVCAR-5 ovarian
T-47D breast = system: T-47D breast
SR leukemia = system: SR leukemia

## CC[C@@H]1CC[C@@H]2[C@H](CC[C@]3(C)[C@@H](OC(C)=O)CC[C@@H]23)[C@H]1C(=O)OC
CAKI-1 renal
  TGI: > 100 µM
SF-268 CNS
  TGI: 81.1 µM
ACHN renal
  TGI: > 100 µM
UACC-62 melanoma
  TGI: 49.4 µM
OVCAR-4 ovarian
  TGI: 52.8 µM
HCT-15 colon
  TGI: 49.5 µM
MCF7 breast
  TGI: 60.3 µM
MDA-MB-435
  TGI: 41.9 µM
NCI-H522 lung
  TGI: 47.8 µM
HOP-62 NSCLC
  TGI: 53.7 µM
SK-MEL-2 melanoma
  TGI: 39.2 µM
HCT-116 colon
  TGI: 33.7 µM
SK-MEL-28 melanoma
  TGI: > 100 µM
SN12C renal
  TGI: 69.9 µM
LOX IMVI melanoma
  TGI: 35.6 µM
HCC-2998 colon
  TGI: > 100 µM
COLO 205 colon
  TGI: 29.5 µM
HS 578T breast
  TGI: > 100 µM
SK-MEL-5 melanoma
  TGI: 27.7 µM
U251 CNS
  TGI: 43.3 µM
SF-295 CNS
  TGI: 46.6 µM
K-562 leukemia
  TGI: 40.1 µM
A498 renal
  TGI: > 100 µM
HL-60(TB) leukemia
  TGI: 31.3 µM
SK-OV-3 ovarian
  TGI: > 100 µM
IGROV1 ovarian
  TGI: 89.8 µM
MALME-3M melanoma
  TGI: 33.3 µM
M14 melanoma
  TGI: 42.3 µM
KM12 colon
  TGI: 52.1 µM
PC-3 prostate
  TGI: 67.3 µM
NCI-H23 lung
  TGI: 59.6 µM
NCI/ADR-RES ovarian
  TGI: 68.5 µM
NCI-H226 lung
  TGI: 38 µM
OVCAR-3 ovarian
  TGI: 34.4 µM
RPMI-8226 leukemia
  TGI: 46.5 µM
HOP-92 NSCLC
  TGI: 37.3 µM
SF-539 CNS
  TGI: 38.3 µM
TK-10 renal
  TGI: > 100 µM
RXF 393 renal
  TGI: 49.8 µM
UO-31 renal
  TGI: > 100 µM
NCI-H460 lung
  TGI: 51.6 µM
786-0 renal
  TGI: 47.3 µM
CCRF-CEM leukemia
  TGI: 47.9 µM
EKVX NSCLC
  TGI: 58.6 µM
SW-620 colon
  TGI: 48.8 µM
A549 NSCLC
  TGI: 70.8 µM
SNB-19 CNS
  TGI: 72.4 µM
MDA-N
  TGI: 41.4 µM
MDA-MB-231 breast
  TGI: 46 µM
BT-549 breast
  TGI: > 100 µM
HT29 colon
  TGI: 67.2 µM
OVCAR-8 ovarian
  TGI: 76.9 µM
UACC-257 melanoma
  TGI: 54.3 µM
DU-145 prostate
  TGI: 86.1 µM
MOLT-4 leukemia
  TGI: 42 µM
SNB-75 CNS
  TGI: 69 µM
OVCAR-5 ovarian
  TGI: 59.5 µM
T-47D breast
  TGI: 66.8 µM

## CC(=O)OCC1OC(OC(C)=O)C(Nc2ncc(-c3ccc(C)cc3)s2)C(OC(C)=O)C1OC(C)=O (stereo not drawn)
CAKI-1 renal
  TGI: 31.2 µM
SF-268 CNS
  TGI: 36.2 µM
ACHN renal
  TGI: 27.7 µM
UACC-62 melanoma
  TGI: 29 µM
OVCAR-4 ovarian
  TGI: 35.4 µM
HCT-15 colon
  TGI: 60 µM
MCF7 breast
  TGI: 52.1 µM
MDA-MB-435
  TGI: 30.3 µM
NCI-H522 lung
  TGI: 34.3 µM
HOP-62 NSCLC
  TGI: 42.2 µM
SK-MEL-2 melanoma
  TGI: 59.7 µM
HCT-116 colon
  TGI: 32.1 µM
SK-MEL-28 melanoma
  TGI: 31.2 µM
SN12C renal
  TGI: 40.8 µM
LOX IMVI melanoma
  TGI: 32 µM
HCC-2998 colon
  TGI: 57.7 µM
COLO 205 colon
  TGI: 38 µM
HS 578T breast
  TGI: 69.5 µM
SK-MEL-5 melanoma
  TGI: 29.2 µM
U251 CNS
  TGI: 31.6 µM
SF-295 CNS
  TGI: 76.3 µM
K-562 leukemia
  TGI: 65.8 µM
SK-OV-3 ovarian
  TGI: > 100 µM
IGROV1 ovarian
  TGI: 36.4 µM
MALME-3M melanoma
  TGI: 41.5 µM
M14 melanoma
  TGI: 33.4 µM
PC-3 prostate
  TGI: 45.3 µM
NCI-H23 lung
  TGI: 31.9 µM
NCI/ADR-RES ovarian
  TGI: 76.8 µM
NCI-H226 lung
  TGI: 50.4 µM
OVCAR-3 ovarian
  TGI: 35.1 µM
RPMI-8226 leukemia
  TGI: 64.3 µM
SF-539 CNS
  TGI: 37.7 µM
TK-10 renal
  TGI: 32.9 µM
RXF 393 renal
  TGI: 29.6 µM
UO-31 renal
  TGI: 27.9 µM
NCI-H460 lung
  TGI: 40.7 µM
786-0 renal
  TGI: 40.1 µM
CCRF-CEM leukemia
  TGI: 55 µM
EKVX NSCLC
  TGI: 27.6 µM
SW-620 colon
  TGI: 45.4 µM
A549 NSCLC
  TGI: 47.9 µM
SNB-19 CNS
  TGI: 52.9 µM
SR leukemia
  TGI: > 100 µM
MDA-N
  TGI: 35.3 µM
MDA-MB-231 breast
  TGI: 49.8 µM
BT-549 breast
  TGI: 36.7 µM
HT29 colon
  TGI: 56.1 µM
OVCAR-8 ovarian
  TGI: 69.9 µM
UACC-257 melanoma
  TGI: 49.1 µM
DU-145 prostate
  TGI: > 100 µM
MOLT-4 leukemia
  TGI: 49.2 µM
SNB-75 CNS
  TGI: 37.6 µM
OVCAR-5 ovarian
  TGI: > 100 µM
T-47D breast
  TGI: 48.8 µM
